Legend:
[1] = system: Erysiphe graminis f. sp. tritici; test: Test A: wheat powdery mildew, preventive spray on wheat seedlings, disease rating; type: in vivo, Erysiphe graminis f. sp. tritici (on wheat seedlings); details: 200 ppm test suspension sprayed to run-off (equivalent to 500 g/ha) on wheat seedlings; 100 = 100% disease control, 0 = no control; # = significant activity
Text: (§1) Test compounds were first dissolved in acetone in an amount equal to 3% of the final volume and then suspended at a concentration of 200 ppm in purified water containing 250 ppm of the surfactant Trem® 014 (polyhydric alcohol esters). The resulting test suspensions were then used in the following test. Spraying these 200 ppm test suspensions to the point of run-off on the test plants is the equivalent of a rate of 500 g/ha.
The test suspension was sprayed to the point of run-off on wheat seedlings. The following day the seedlings were inoculated with a spore dust of Erysiphe graminis f. sp. tritici, (the causal agent of wheat powdery mildew) and incubated in a growth chamber at 20° C. for 7 days, after which disease ratings were made.
(§2) Results for Tests A-E are given in Table A. In the table, a rating of 100 indicates 100% disease control and a rating of 0 indicates no disease control (relative to the controls). A dash (-) indicates no test results. ND indicates disease control not determined due to phytotoxicity. # indicates significant activity.

Puccinia recondita = test: Test B: wheat leaf rust, preventive spray on wheat seedlings, disease rating; type: in vivo, Puccinia recondita (on wheat seedlings); details: 200 ppm test suspension sprayed to run-off (equivalent to 500 g/ha) on wheat seedlings; 100 = 100% disease control, 0 = no control; # = significant activity
Text: as §1
(§3) The test suspension was sprayed to the point of run-off on wheat seedlings. The following day the seedlings were inoculated with a spore suspension of Puccinia recondita (the causal agent of wheat leaf rust) and incubated in a saturated atmosphere at 20° C. for 24 h, and then moved to a growth chamber at 20° C. for 6 days, after which disease ratings were made.
as §2

Pyricularia oryzae = type: in vivo, Pyricularia oryzae (on rice seedlings); details: 200 ppm test suspension sprayed to run-off (equivalent to 500 g/ha) on rice seedlings; 100 = 100% disease control, 0 = no control; # = significant activity
Phytophthora infestans = type: in vivo, Phytophthora infestans (on tomato seedlings); details: 200 ppm test suspension sprayed to run-off (equivalent to 500 g/ha) on tomato seedlings; 100 = 100% disease control, 0 = no control; # = significant activity
Botrytis cinerea = test: Test E: gray mold, preventive spray on cucumber seedlings, disease rating; type: in vivo, Botrytis cinerea (on cucumber seedlings); details: 200 ppm test suspension sprayed to run-off (equivalent to 500 g/ha) on cucumber seedlings; 100 = 100% disease control, 0 = no control; # = significant activity
Text: as §1
as §3, with “cucumber” for “wheat”, “Botrytis cinerea” for “Puccinia recondita”, “gray mold on many crops)” for “wheat leaf rust)”, “48” for “24”, “and” for “and then”, “5” for “6”
as §2

Row | SMILES | Test A disease control rating (wheat powdery mildew) [1] | Test B disease control rating (wheat leaf rust) (Puccinia recondita) | Test C disease control rating (rice blast) (Pyricularia oryzae) | Test D disease control rating (potato and tomato late blight) (Phytophthora infestans) | Test E disease control rating (gray mold) (Botrytis cinerea)
1 | CC(COc1cc(Cl)ccc1F)NC(=O)C1(C)CC(C)(Br)C1 (centres unmarked) [compound 54] | 24% | 0 (a rating of 0 indicates no disease control (relative to the controls)) | 97# % | 0 (a rating of 0 indicates no disease control (relative to the controls)) | 0 (a rating of 0 indicates no disease control (relative to the controls))
2 | CC(NC(=O)C1(C)CC(C)(Cl)C1)c1ccc(Br)cc1 (centres unmarked) [compound 14] | 0 (a rating of 0 indicates no disease control (relative to the controls)) | 0 (a rating of 0 indicates no disease control (relative to the controls)) | 97# % | 0 (a rating of 0 indicates no disease control (relative to the controls)) | 0 (a rating of 0 indicates no disease control (relative to the controls))
3 | CC(NC(=O)C1(C)CC(C)(Br)C1)c1ccc(Br)cc1 (centres unmarked) [compound 18] | 0 (a rating of 0 indicates no disease control (relative to the controls)) | 0 (a rating of 0 indicates no disease control (relative to the controls)) | 99# % | 0 (a rating of 0 indicates no disease control (relative to the controls)) | 0 (a rating of 0 indicates no disease control (relative to the controls))
4 | CC(NC(=O)C1(C)CC(C)(Cl)C1)c1ccc(Cl)cc1Cl (centres unmarked) [compound 20] | 59% | 0 (a rating of 0 indicates no disease control (relative to the controls)) | 100# (a rating of 100 indicates 100% disease control) | 0 (a rating of 0 indicates no disease control (relative to the controls)) | 0 (a rating of 0 indicates no disease control (relative to the controls))
5 | CC(NC(=O)C1(C(F)(F)F)CC(C)(Cl)C1)c1ccc(Cl)cc1Cl (centres unmarked) [compound 8] | 0 (a rating of 0 indicates no disease control (relative to the controls)) | 0 (a rating of 0 indicates no disease control (relative to the controls)) | 100# (a rating of 100 indicates 100% disease control) | 24% | 0 (a rating of 0 indicates no disease control (relative to the controls))
6 | CC(COc1cc(F)ccc1Cl)NC(=O)C1(C)CC(C)(Cl)C1 (centres unmarked) [compound 50] | 54% | 0 (a rating of 0 indicates no disease control (relative to the controls)) | 94# % | 0 (a rating of 0 indicates no disease control (relative to the controls)) | 0 (a rating of 0 indicates no disease control (relative to the controls))
7 | CC(NC(=O)C1CC(C)(Cl)C1)C(Oc1ccccc1C#N)c1ccccc1 (centres unmarked) [compound 36] | 0 (a rating of 0 indicates no disease control (relative to the controls)) | 0 (a rating of 0 indicates no disease control (relative to the controls)) | 0 (a rating of 0 indicates no disease control (relative to the controls)) | 0 (a rating of 0 indicates no disease control (relative to the controls)) | 0 (a rating of 0 indicates no disease control (relative to the controls))
8 | CC(COc1ccc(F)cc1C#N)NC(=O)C1(C)CC(C)(Cl)C1 (centres unmarked) [compound 40] | 0 (a rating of 0 indicates no disease control (relative to the controls)) | 0 (a rating of 0 indicates no disease control (relative to the controls)) | 0 (a rating of 0 indicates no disease control (relative to the controls)) | 62% | 0 (a rating of 0 indicates no disease control (relative to the controls))
9 | CC(NC(=O)C1(C)CC(C)(Br)C1)c1ccc(Cl)cc1Cl (centres unmarked) [compound 69] | 0 (a rating of 0 indicates no disease control (relative to the controls)) | 0 (a rating of 0 indicates no disease control (relative to the controls)) | 100# (a rating of 100 indicates 100% disease control) | 24% | 0 (a rating of 0 indicates no disease control (relative to the controls))
10 | CC(COc1cc(F)ccc1F)NC(=O)C1(C)CC(C)(Br)C1 (centres unmarked) [compound 57] | 90# % | 0 (a rating of 0 indicates no disease control (relative to the controls)) | 86# % | 0 (a rating of 0 indicates no disease control (relative to the controls)) | 0 (a rating of 0 indicates no disease control (relative to the controls))
11 | COc1cc(Br)ccc1C(C)NC(=O)C1(C)CC(C)(Cl)C1 (centres unmarked) [compound 59] | 0 (a rating of 0 indicates no disease control (relative to the controls)) | 85# % | 100# (a rating of 100 indicates 100% disease control) | 23% | 0 (a rating of 0 indicates no disease control (relative to the controls))
12 | CC(NC(=O)C1(C)CC(Cl)(CCl)C1)c1ccc2ccccc2c1 (centres unmarked) [compound 63] | 0 (a rating of 0 indicates no disease control (relative to the controls)) | 0 (a rating of 0 indicates no disease control (relative to the controls)) | 53% | 37% | 0 (a rating of 0 indicates no disease control (relative to the controls))
13 | CC(COc1ccc(Cl)cc1C#N)NC(=O)C1(C)CC(C)(Cl)C1 (centres unmarked) [compound 41] | 0 (a rating of 0 indicates no disease control (relative to the controls)) | 0 (a rating of 0 indicates no disease control (relative to the controls)) | 0 (a rating of 0 indicates no disease control (relative to the controls)) | 85# % | 19%
14 | COc1cc(Br)ccc1C(C)NC(=O)C1(C)CC(C)(Cl)C1 (centres unmarked) [compound 60] | 0 (a rating of 0 indicates no disease control (relative to the controls)) | 0 (a rating of 0 indicates no disease control (relative to the controls)) | 100# (a rating of 100 indicates 100% disease control) | 23% | 0 (a rating of 0 indicates no disease control (relative to the controls))
15 | CC(COc1cc(F)ccc1Cl)NC(=O)C1(C)CC(C)(Cl)C1 (centres unmarked) [compound 49] | 98# % | 0 (a rating of 0 indicates no disease control (relative to the controls)) | 100# (a rating of 100 indicates 100% disease control) | 0 (a rating of 0 indicates no disease control (relative to the controls)) | 0 (a rating of 0 indicates no disease control (relative to the controls))
16 | CC(COc1cc(F)ccc1F)NC(=O)C1(C)CC(C)(Cl)C1 (centres unmarked) [compound 29] | 0 (a rating of 0 indicates no disease control (relative to the controls)) | 86# % | 100# (a rating of 100 indicates 100% disease control) | 0 (a rating of 0 indicates no disease control (relative to the controls)) | 0 (a rating of 0 indicates no disease control (relative to the controls))

Reference: US6504058B1 (priority 1997, dated 2003)
